This assay deals with C57BL/6 and p47phox-/- mice infected intranasally with A. fumigatus conidia. Description: Lung inflammation model: C57BL/6 and p47phox-/- mice infected intranasally with A. fumigatus. The class given is in vivo. As to conditions: p47phox-/- aspergillosis mice. The protocol:
In vivo models mimicking human pathology such as lung and gut inflammation were prepared. A model of lung inflammation was tested using C57BL/6 and p47phox-/- mice. The mice were infected with A. fumigatus intranasally and treated them with Tβ4 for 7 consecutive days starting a week after the infection. LC3-II (FIG. 1F) and DAPK1 (FIG. 1G) expression were both defective in p47phox-/- mice, but restored by Tβ4 and ablated (LC3-II) upon siTβ4 (FIGS. 10A and 10B). In addition, gut inflammation was tested using the same mouse model. Acute colitis in p47phox-/- mice was initiated by administering […] in drinking water for 7 days followed by 7 days of DSS-free autoclaved water. Subsequently, Tβ4 was therapeutically administered daily for 7 days, after DSS treatment, at the time at which mice started to lose weight. Consistent with previous findings (de Luca et al., 2014), LC3-II (FIG. 1H) and DAPK1 (FIG. 1I) expression were both defective in the colon ofp47phox-/- mice with colitis as opposed to WT mice but restored upon treatment with T134 (FIGS. 1H and 1I). DAPK1 expression in colon lysates of C57BL/6 and p47^phox-/- mice subjected to DSS-induced colitis for a week and treated intraperitoneally with 5 mg/kg Tβ4 for 7 consecutive days after DSS treatment, n=6-10 mice per group. Data are presented as mean ±SD and are representative of two experiments. Mice were categorized as Naive (uninfected or untreated mice) or None (infected mice). For immunoblotting, normalization was performed on mouse β-actin or Gapdh and corresponding pixel density or ratio is depicted. For immunofluorescence, nuclei were counterstained with DAPI. Photographs were taken with a high-resolution microscope (Olympus BX51), 40× and 100× magnification. LC3 mean fluorescence intensity (MFI) was measured with the ImageJ software. In FIGS. 1F-1H, n=6-10 mice per group. Data are presented as mean ±SD and are representative of two experiments. Naïve, uninfected or untreated mice. None, infected mice.
Viable conidia from the A. fumigatus Af293 strain were obtained as described (De Luca et al., 2012). Mice were anesthetized in a plastic cage by inhalation of 3% isoflurane (Forane Abbot) in oxygen before intranasal instillation of 2×10^7 resting conidia/20 μl saline. For survival curves, p47^phox-/- mice were challenged with […] conidia/20 μl saline. Tβ4 was administered intraperitoneally (i.p.) at the dose of 5 mg/kg at an effective dose as described (Badamchian et al., Thymosin beta(4) reduces lethality and down-regulates inflammatory mediators in endotoxin-induced septic shock. Int Immunopharmacol, 2003 3(8): p. 1225-33), every day in concomitance with (days 0→7) or after (days 7→14) infection. DMOG (Merck Millipore) was administered i.p. at the dose of 8 mg/mouse concomitantly to the infection. For Hif1a silencing, each mouse received intranasal administration of 10 mg/kg unmodified siRNA [Duplex name mm.Ri.Hif1a.13.1 (IDT); 5′-[…]-3′; 3′-[…] -5′] and Tmsb4x silencing [Duplex name mm.Ri.Tmsb4x.13.1; 5′-[…]-3′; 3′-[…] -5′], or equivalent dose of nonspecific control siRNA duplex in a volume of 20 μl of duplex buffer (IDT). Intranasal siRNA was given once the day before infection and 1, 3 and 5 days after infection (Iannitti et al., 2013 Hypoxia promotes danger-mediated inflammation via receptor for advanced glycation end products in cystic fibrosis. Am J Respir Crit Care Med 188:1338-1350). It is known that lung-specific siRNA delivery can be achieved by intranasal administration without the use of viral vectors or transfection agents in vivo (Iannitti et al., 2013 Th17/Treg imbalance in murine cystic fibrosis is linked to indoleamine 2,3-dioxygenase deficiency but corrected by kynurenines. Am J Respir Crit Care Med 187:609-620). Mice were sacrificed 7 or 14 days post infection. Fungal burden was determined by qPCR and expressed as conidial equivalents (CE). Lung tissue was aseptically removed and homogenized in 3 ml of sterile saline. […]

For `COC(=O)CNC(=O)C(=O)OC` [DMOG, dimethyloxalylglycine, reference compound], the fungal burden result (DMOG for 5 days (FIG. 7A)) is “reduced”. Moreover, for the setting “DMOG for 5 days (FIG. 7B)”, the lung pathology result is given as “ameliorated”. Further, the HIF-1α expression result (DMOG for 5 days (FIG. 7C)) is recorded as “increased”. For the same molecule, the HIF-1α-responsive genes entry (DMOG for 5 days (FIG. 7D)) is recorded as “up-regulated”.
